Assay results published in patent publication US11845770B2, “Ascaroside derivatives and methods of use” (California Institute of Technology, priority 2019, dated 2023).
“Also recorded” adds a separate entry of the source.

Legend:
[1] = Stability in hepatocytes (rat); format: in vitro ADME; conditions: cryopreserved rat hepatocytes (suspension)
Protocol: 10 mM of 1 was provided as a 1000× stock solution in dimethylsulfoxide (DMSO), and the stock solution was diluted to 1 mM with DMSO in 96-well plates. 30 mM of positive compounds (7-ethoxycoumarin and 7-hydroxycoumarin) were provided as a 1000× stock solution in DMSO, and the stock solution was diluted to 3 mM with DMSO in 96-well plates. 20 μL of 1000× stock solution of each compound were pipetted and was mixed with 380 μL of 45% MeOH/H2O to obtain 50 μM of 1 and 150 μM of the positive control compound solutions to form 50× intermediate solutions. 20 μL of 50× intermediate solution of each compound were pipetted and was mixed with […] of pre-warmed incubation medium to obtain 5 μM of 1 and 15 μM of the positive control compound solutions to form 5× working solutions. The incubation medium was Williams' Medium E (no phenol red) containing 2 mM L-glutamine and 25 mM HEPES. 10 μL of 5× working solutions of each compound were pipetted into appropriate wells in a 96-well plate for time points of 0 minutes, 15 minutes, 30 minutes, 60 minutes, and 90 minutes in duplicates. The plates with compounds were kept warm in an incubator at 37° C.
A cell suspension was prepared by thawing cryopreserved cells, isolating the cells, and suspending the cells in thawing medium. […]
The remaining percentage of 1 after incubation was calculated according to the following equation. […]

[2] = system: THP-1 derived macrophages; assay: Stimulation of THP-1 cells, cytokine release 72 h post stimulation; format: cell-based, human; conditions: 72 h post stimulation (IFN-γ + LPS); 0.1, 1, 10, 100 or 200 μM vs 0 μM
Protocol: Human immortalized monocytic THP-1 cells were maintained in phenol red free RPMI 1640 medium containing 10% (v/v) fetal bovine serum (FBS), 2 mM L-glutamine, penicillin (100 units/mL), streptomycin (100 μg/mL), amphotericin B (2.5 μg/mL), and 50 μM beta-mercaptoethanol (BME) at 37° C. with 5% (v/v) CO2. THP-1 cells were seeded in 1 mL of THP-1 medium (cell culture medium containing 10% (v/v) FBS, 2 mM L-glutamine, penicillin (100 units/mL), streptomycin (100 μg/mL), amphotericin B (2.5 μg/mL), and 50 μM BME)/well at a density of 1 million cells/mL in six-well plates. Cells were differentiated by adding 100 nM phorbol 12-myristate 13-acetate (PMA) to each well before incubating cells for 5.5 h at 37° C. with 5% (v/v) CO2. Without removing the media, different concentrations (either 0, 0.1, 1, 10, 100, or 200 μM) of 1 and 10 were added to each well. Cells were stimulated, within 30 min by adding 20 ng/mL interferon gamma (IFN-γ) and 100 ng/mL lipopolysaccharide (LPS) to each well. Following stimulation, the THP-1 cells were incubated for 72 h at 37° C. with 5% (v/v) CO2. Supernatant was collected and stored at −80° C. until use.
IL-6 release from supernatant collected at 72 hours post stimulation was measured using the AlphaLISA Human IL-6 detection kit.
TNFα release from supernatant collected at 72 hours post stimulation was measured using the AlphaLISA Human TNFα detection kit.

[3] = Plasma protein binding, HT-Dialysis (human); format: in vitro ADME; conditions: pH 7.4, dialysis 4 hours, read-out: percent unbound
Protocol: HT-Dialysis plate (Model HTD 96 b, Cat #1006) and the dialysis membrane (molecular weight cut off 12-14 KDa, Cat #1101) can be purchased from HT Dialysis LLC (Gales Ferry, CT).
The plasma was thawed under running cold tap water and centrifuged at 3220×g for 5 min to remove any clots. The pH value was checked and recorded. Only plasma within range of pH 7.0 to pH 8.0 was used. The dialysis membrane was pretreated according to the manufacturer's instructions. Briefly, the dialysis membrane strips were soaked in ultra-pure water at room temperature for approximately 1 hr. After that, each membrane strip that contained 2 membranes was separated and soaked in ethanol:water (20:80 v:v) for approximately 20 min. The membrane was rinsed and soaked for 20 min in ultra-pure water.
Aliquots of 50 μL loading plasma (matrix) containing compound 1 or warfarin in triplicate were transferred to the appropriate wells of a sample collection plate. The samples were matched with dialysis buffer to obtain a final volume of 100 μL with a volume ratio of plasma (matrix):dialysis buffer (1:1, v:v) in each well. […]
The % Unbound, % Bound, % Recovery and % Remaining were calculated using the following equations: % Unbound=100×F/T % Bound=100−% Unbound % Recovery=100×(F+T)/T0 • F=the compound 1 concentration on the receiver side of the membrane/Correction Factor. […]

Compound	half-life at 1 µM [1]	fold change of IL-6 levels secreted by the THP1-derived macrophages [2]	fold change of TNFα levels secreted by the THP1-derived macrophages [2]	fraction unbound at 4 h [3]
C[C@H](CC/C=C/C(=O)OC(C)(C)C)O[C@@H]1O[C@@H](C)[C@H](O)C[C@H]1O [Compound 1, tert-butyl (2E,6R)-6-{[(2R,3R,5R,6S)-3,5-dihydroxy-6-methyloxan-2-yl]oxy}hept-2-enoate]	23.1 min	reduced these levels significantly; also recorded: even more significantly reduced	reduced these levels significantly	0.329
C[C@H](CC/C=C/C(=O)O)O[C@@H]1O[C@@H](C)[C@H](O)C[C@H]1O [ascr #7, reference compound]	> 217 min	significantly reduced		0.868
